Data set [1] has as its system p-ERK in AGS cells. The experiment in a line: Inhibition of p-ERK in AGS cells (LANCE Ultra phospho-ERK1/2 kit). The data set is classed as cell-based. Conditions: Homo sapiens, AGS, 2 h, read-out: AGS_pERK IC50. Summed up:
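AGS (KRAS G12D) cells plated overnight, treated with compound dilutions for 2 h at 37°C, then lysed. Lysate p-ERK1/2 (T202/Y204) read by TR-FRET with 0.5 nM Eu anti-p-ERK and 5 nM ULight anti-ERK after overnight room-temperature incubation (665/620 nm). IC50 from nonlinear regression of inhibition versus concentration.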
On the technique in general: In TR-FRET formats the signal depends on donor and acceptor labels being close together.

A short description of data set [2]: Plasma stability test, mouse plasma.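 For all read-outs here: test compound quantified by LC-MS using positive-mode electrospray ionization and MRM scanning, with an internal standard added in acetonitrile.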 The data set is classed as in vitro ADME. Conditions: for half-life: read-out: t1/2 (converted).
Description: Liquid chromatography-mass spectrometer, centrifuge, vortexer, pipette, continuous dispenser, 96-well plate, 50% methanol aqueous solution, acetonitrile solution containing internal standard, blank matrix (plasma of rat, dog, or human), Propantheline (propantheline bromide), Mevinolin (lovastatin), and test compound.
After whole blood was collected from animals or humans, it was placed in a test tube containing an anticoagulant and centrifuged at 3500 rpm for 10 min to collect the upper pale yellow plasma.
The compound was weighed and the stock solution was formulated with DMSO and the working solution was formulated with 100 mM phosphate buffer.
• Instrument: API4000 liquid chromatography-mass spectrometer, AB Company, USA; • the ion source was electrospray ionization source (ESI); • drying gas (N2) temperature was 500°C; • electrospray voltage was 5500V; • the detection method was positive ion detection; • the scanning method was selected reaction monitoring (MRM); • the scanning time was 0.1s.
The nature of data set [3]: Plasma stability test, rat plasma. Conditions: for Remaining rate (%) 0 min / Remaining rate (%) 15 min / Remaining rate (%) 30 min / Remaining rate (%) 60 min / Remaining rate (%) 120 min: Rat plasma, 37°C; for half-life: rat, plasma.
For data set [4], the system named is human pancreatic cancer cell line (HPAC). The experiment in a line: Antitumor efficacy in mouse transplanted tumor model of human pancreatic cancer cell line (HPAC). The data set is classed as in vivo, mice (BALB/c nude). Conditions: Table 11, HPAC xenograft, 100mpk, PO*BID; for Tumor volume (mm^3, Mean ± SD) Day 0: Day 0 (baseline). The text has this: 8-10 week old female conventional immunodeficient mice (BALB/c nude) with a body weight of 18 g-22 g were used as experimental animals, and a transplanted tumor model of human pancreatic cancer cell line (HPAC) was used to conduct in vivo efficacy experiments to test the anti-tumor results of the example compounds after gavage administration.
The example compounds of the present invention, made in house.
A certain amount of the example compound was weighed, and an appropriate amount of 10% vehicle (Solutol HS15) was added. The mixture was stirred on a magnetic stirrer for 0.5 h to formulate a homogeneous suspension at the desired concentration.
Human pancreatic cancer cell line (HPAC) was derived from COBIOER BIOSCIENCES CO., LTD, cultured on DMEM/F12 medium (Gibco, 11330-032) supplemented with 10% fetal calf serum (Gibco, 10091-148), 1×Insulin (51500-056, Gibco) and 10 ng/ml of EGF (PHG0311, Gibco) and observed under a microscope (Thermo Fisher, 311). The cells were routinely passaged when the cells reached 80%-90% confluence in the culture flask. The passaged cells were cultured in a 37°C, 5% CO2 incubator (Thermo Fisher, 311).
Under aseptic conditions, human pancreatic cancer cells (HPAC) in the logarithmic growth phase were harvested using 0.25% trypsin-EDTA (Gibco, 25200-056), washed and resuspended with phosphate buffer. The cell suspension was mixed with Matrigel (Corning, 356234) at a 1 : 1 ratio (v/v) and implanted subcutaneously into the right anterior dorsal region of immunodeficient mice (BALB/c nude). Each mouse was inoculated with 3*10^6 cells in a volume of 100 microliters (µL). After inoculation, when the tumor volume reached 100-200 mm^3, the mice would be evenly randomized into 5 groups based on the tumor size, with 5 mice per group, for in vivo efficacy experiments. The negative control group was the vehicle group.
Mode of administration: The example compounds were administered orally.
Twice a week, the long and short diameters of the tumor were measured using a vernier caliper, and the tumor volume (mm^3) was calculated using the formula: V = 0.5*D*d*d, where D and d are the long and short diameters of the tumor, respectively. The anti-tumor efficacy was determined by dividing the average increase in tumor volume of compound-treated animals by the average increase in tumor volume of untreated animals. The calculation formula for tumor inhibition rate was: When there is no tumor regression, TGI(%) = 100-[(Vt-V0) administration group/(Vt-V0) vehicle control group]*100%. When tumor regression occurs, TGI(%) = [1-(Vt-V0) administration group/V0 vehicle control group]*100%. All animals were euthanized after the experiment.

Here are results for three molecules from patent EP4635958A1, “PYRIMIDINE-CONTAINING POLYCYCLIC DERIVATIVE INHIBITOR, AND PREPARATION METHOD THEREFOR AND USE THEREOF” (Shanghai Hansoh Biomedical Co., Ltd., priority 2022, dated 2024).

SMILES strings stand for the structures.

With `C#Cc1c(F)ccc2cc(O)cc(-c3nc4c5c(nc(OCC6(CN7CCC(=CF)CC7)CC6)nc5c3F)N3C[C@H]5CC[C@H](N5)[C@H]3[C@H](C)O4)c12` [Example 129, 5-ethynyl-6-fluoro-4-((5S,5aS,6S,9R)-1-fluoro-12-((1-((4-(fluoromethylene)piperidin-1-yl)methyl)cyclopropyl)methoxy)-5-methyl-5a,6,7,8,9,10-hexahydro-5H-4-oxa-3,10a,11,13,14-pentaaza-6,9-methylnaphtho[1,8-ab]hept-2-yl)naphthalen-2-ol], in data set [1], the IC50 was found to be 2.4 nM. The “Remaining rate (%) 0 min” value in data set [2] (Mouse plasma, 37°C, 0 min) worked out at 100.00%. In addition, in data set [2] (Mouse plasma, 37°C, 15 min), the “Remaining rate (%) 15 min” value was 97.30%. For the same molecule, in data set [2] (Mouse plasma, 37°C, 30 min), the “Remaining rate (%) 30 min” value came to 103.47%. Besides, in data set [2] (Mouse plasma, 37°C, 60 min), the “Remaining rate (%) 60 min” value stood at 104.94%. In data set [2] (Mouse plasma, 37°C, 120 min), the “Remaining rate (%) 120 min” value is 91.62%. For the same molecule, the half-life in data set [2] (Mouse plasma, 37°C) is 37.6 h. For the same molecule, in data set [3], the “Remaining rate (%) 0 min” value is on record as 100.00%, the “Remaining rate (%) 15 min” value turned out to be 110.22%, the “Remaining rate (%) 30 min” value came out at 98.09% and the “Remaining rate (%) 60 min” value is recorded as 106.43%. In data set [3], the “Remaining rate (%) 120 min” value is 95.62% and the half-life is 41.2 h. Further, in data set [4], the “Tumor volume (mm^3, Mean ± SD) Day 0” value worked out at 209 mm^3; the “TGI(%) Day 21” value was found to be 97.63%; the “Tumor volume (mm^3, Mean ± SD) Day 21” value turned out to be 231 mm^3; the “ΔT/ΔC(%) Day 21” value was found to be 20.27%.
Consider `[2H]C([2H])([2H])[C@@H]1Oc2nc(-c3cc(O)cc4ccc(F)c(C#C)c34)c(F)c3nc(OCC4(CN5CCC(=C(F)F)CC5)CC4)nc(c23)N2C[C@H]3CC[C@H](N3)[C@@H]12` [Example 161, 4-((5S,5aS,6S,9R)-12-((1-((4-(difluoromethylene)piperidin-1-yl)methyl)cyclopropyl)methoxy)-1-fluoro-5-(methyl-d3)-5a,6,7,8,9,10-hexahydro-5H-4-oxa-3,10a,11,13,14-pentaaza-6,9-methylnaphtho[1,8-ab]hept-2-yl)-5-ethynyl-6-fluoronaphthalen-2-ol], for which the IC50 in data set [1] is 4.9 nM. In addition, the half-life in data set [2] (Mouse plasma, 37°C) is 229 h. Moreover, in data set [2] (mouse, plasma, 0 h), the “Remaining rate (%) 0 min” value turned out to be 100.00%. In addition, in data set [2] (mouse, plasma, 0.25 h), the “Remaining rate (%) 15 min” value came to 101.36%. Moreover, the “Remaining rate (%) 30 min” value in data set [2] (mouse, plasma, 0.5 h) is recorded as 101.38%. Further, in data set [2] (mouse, plasma, 1 h), the “Remaining rate (%) 60 min” value is on record as 98.35%. The “Remaining rate (%) 120 min” value in data set [2] (mouse, plasma, 2 h) came out at 101.35%. Also, the half-life in data set [3] was 29.4 h. Further, in data set [4], the “Tumor volume (mm^3, Mean ± SD) Day 0” value was 209 mm^3; the “TGI(%) Day 21” value was 137.45%; the “Tumor volume (mm^3, Mean ± SD) Day 21” value was found to be 131 mm^3; the “ΔT/ΔC(%) Day 21” value is 11.47%.
Regarding `[2H]C([2H])(Oc1nc2c3c(nc(-c4cc(O)cc5ccc(F)c(C#C)c45)c(F)c3n1)O[C@@H](C)[C@@H]1[C@@H]3CC[C@H](CN21)N3)C1(C([2H])([2H])N2CCC(=CF)CC2)CC1` [Example 291, 5-ethynyl-6-fluoro-4-((5S,5aS,6S,9R)-1-fluoro-12-((1-((4-(fluoromethylene)piperidin-1-yl)methyl-d2)cyclopropyl)methoxy-d2)-5-methyl-5a,6,7,8,9,10-hexahydro-5H-4-oxa-3,10a,11,13,14-pentaaza-6,9-methylnaphtho[1,8-ab]hept-2-yl)naphthalen-2-ol], the IC50 in data set [1] worked out at 2.3 nM. For the same molecule, the “Remaining rate (%) 0 min” value in data set [2] (Mouse plasma, 37°C, 0 min) is given as 100.00%. Further, in data set [2] (Mouse plasma, 37°C, 15 min), the “Remaining rate (%) 15 min” value was 97.50%. Also, the “Remaining rate (%) 30 min” value in data set [2] (Mouse plasma, 37°C, 30 min) worked out at 82.58%. The “Remaining rate (%) 60 min” value in data set [2] (Mouse plasma, 37°C, 60 min) turned out to be 81.82%. Further, in data set [2] (Mouse plasma, 37°C, 120 min), the “Remaining rate (%) 120 min” value is reported as 63.23%. The half-life in data set [2] (Mouse plasma, 37°C) is 3.08 h. Besides, in data set [3], the “Remaining rate (%) 0 min” value amounted to 100.00%, the “Remaining rate (%) 15 min” value was 99.67%, the “Remaining rate (%) 30 min” value turned out to be 102.83% and the “Remaining rate (%) 60 min” value is 103.48%. Further, in data set [3], the “Remaining rate (%) 120 min” value was 98.20% and the half-life is 38.3 h. Also, in data set [4], the “Tumor volume (mm^3, Mean ± SD) Day 0” value is listed as 210 mm^3; the “TGI(%) Day 21” value amounted to 127.51%; the “Tumor volume (mm^3, Mean ± SD) Day 21” value turned out to be 153 mm^3; the “ΔT/ΔC(%) Day 21” value was determined as 13.29%.

Usually IC50 stands for the concentration at which inhibition is half-maximal.
